Test results reported in PubChem BioAssay (NCI).
Where “and” joins values, the source holds several entries; their conditions need not be identical. Identical values can stand only once.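 Tested at 5 concentrations; 48 h exposure; 96-well plates; endpoints linearly interpolated, else capped at highest concentration. GI50: concentration for 50% inhibition of growth. TGI marks complete inhibition of growth.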

Columns and labels:
Assay in all cases: inhibition of tumour cell growth, NCI panel, 48 h
[1] = system: 786-0 renal
[2] = system: BT-549 breast
[3] = system: CAKI-1 renal
[4] = system: HL-60(TB) leukemia
[5] = system: LOX IMVI melanoma
[6] = system: OVCAR-8 ovarian
[7] = system: SF-268 CNS
[8] = system: SF-539 CNS
[9] = system: SK-MEL-28 melanoma
[10] = system: U251 CNS

| Compound | GI50 [1] | TGI [1] [µM] | GI50 [2] | TGI [2] [µM] | TGI [3] [µM] | GI50 [4] | TGI [4] [µM] | GI50 [5] | TGI [5] | GI50 [6] | TGI [6] [µM] | GI50 [7] | TGI [7] [µM] | GI50 [8] | TGI [8] [µM] | GI50 [9] | GI50 [10] | TGI [10] [µM] | GI50 [3] [µM] | TGI [9] [µM] |
| --- | --- | --- | --- | --- | --- | --- | --- | --- | --- | --- | --- | --- | --- | --- | --- | --- | --- | --- | --- | --- |
| O=C(NOC[C@H](O)CO)c1ccc(F)c(F)c1Nc1ccc(I)cc1F | 21.6 µM and > 10 µM | > 100 | 10.8 µM and > 10 µM | > 31.4 | > 100 | < 0.01 µM and 0.0166 µM | > 100 | < 0.0127 µM and 0.0397 µM | 19.9 µM and > 6.5 µM | 21.7 µM and > 7.5 µM | > 100 | 25.6 µM and > 2.28 µM | > 100 | 15.8 µM and > 10 µM | > 100 | < 0.01 µM and 0.00192 µM | 1.05 µM and 0.662 µM | > 100 | – | – |
| OCc1ccc(N2CCc3cccc(F)c3C2)cc1Cl | 16.7 µM | 44.7 | 16.9 µM | 36.7 | 21.8 | 18.4 µM | 53.2 | 23.5 µM | > 63.2 µM | 5.85 µM | 41.9 | 24.5 µM | > 89.4 | 27.8 µM | > 87.7 | 25.7 µM | < 0.0297 µM | 36.3 | 1.19 | > 79.7 |
| CCOC(=O)C(Cc1c[nH]c2c(N(CCO)CCO)cccc12)(NC(C)=O)C(=O)OCC | > 1000 µM | > 1000 | 564 µM | > 1000 | – | 318 µM | > 1000 | 141 µM | 283 µM | > 1000 µM | > 1000 | > 1000 µM | > 1000 | > 1000 µM | > 1000 | 736 µM | 183 µM | 420 | – | > 1000 |
| O=C(/C=C/c1ccccc1)C(Br)C(Br)c1ccccc1 (stereo not given) | 1.91 µM | 4.31 | 1.86 µM | 3.39 | 2.6 | 1.34 µM | 3.58 | 1.52 µM | 2.91 µM | 2.04 µM | 6.38 | 2.16 µM | 5.68 | 1.87 µM | 3.86 | 2.04 µM | 1.68 µM | 3.81 | 1.24 | 4.66 |
| O=c1c2cc(F)ccc2sc2c(N3CCNCC3)nc3ccc(F)cc3c12 | 1.49 µM | 2.98 | 10.1 µM | 24.1 | 2.92 | 2.05 µM | 3.94 | 1.62 µM | 3.16 µM | – | – | 1.57 µM | 3.16 | 1.72 µM | 3.15 | 1.74 µM | – | – | 1.57 | 3.17 |
| COc1ccc(C2OC(=O)c3ccc4ccccc4c32)c(C)c1 (stereo not given) | – | 54 | – | > 100 | > 100 | – | > 24.6 | – | > 100 µM | – | 56.5 | – | > 100 | – | 40.5 | – | – | 30.6 | – | > 71.3 |
| CCOC(=O)c1cc2cc3c4c(c2oc1=O)CCCN4CCC3 | – | > 100 | – | > 100 | > 100 | – | 45.8 | – | 62.7 µM | – | 72.9 | – | 71.3 | – | 58.2 | – | – | > 100 | – | > 100 |
| O=C1CC2C(=O)c3ccccc3CC2c2ccccc21 (stereo not given) | – | > 100 | – | > 100 | – | – | 62.6 | – | > 100 µM | – | > 100 | – | > 100 | – | > 100 | – | – | > 100 | – | > 100 |
| COc1cc2ncn(-c3cc(OCc4ccccc4C(F)(F)F)c(C(=O)N(C)C)s3)c2cc1OC | > 25 µM | > 25 | > 21.9 µM | > 25 | > 25 | > 25 µM | > 25 | > 25 µM | > 25 µM | 17.7 µM | > 25 | > 25 µM | > 25 | > 25 µM | > 25 | > 25 µM | > 25 µM | > 25 | > 25 | > 25 |
| Cn1c(C(=O)c2ccncc2)cc2ccccc21 | > 100 µM | > 100 | > 100 µM | > 100 | > 100 | 76.5 µM | > 100 | > 100 µM | > 100 µM | 46 µM | > 100 | 96.7 µM | > 100 | 87.5 µM | > 100 | > 100 µM | > 100 µM | > 100 | 72.9 | > 100 |
| O=[N+]([O-])c1cc(Cl)c2[nH]c3c(Cl)cc([N+](=O)[O-])cc3c2c1 | 0.294 µM | 16.7 | 0.326 µM | 5.34 | 0.752 | 0.304 µM | 6.34 | 0.308 µM | > 42 µM | 0.253 µM | 1.23 | 0.403 µM | > 100 | 0.653 µM | > 92.2 | 0.47 µM | 0.286 µM | 5.43 | 0.209 | > 100 |
| Nc1nonc1-c1nc2cnccc2n1C1CC1 | 5.44 µM | > 25 | 3.85 µM | 19.2 | > 25 | 5.32 µM | 14.6 | 6.54 µM | > 18 µM | 6.83 µM | > 25 | 4.98 µM | > 25 | 2.54 µM | 10.1 | 8.47 µM | 9.09 µM | > 25 | 1.45 | > 20.9 |
| COc1ccc(-c2ccncc2)cc1C(N)=O | > 25 µM | > 25 | > 25 µM | > 25 | > 25 | > 25 µM | > 25 | > 25 µM | > 25 µM | > 25 µM | > 25 | > 25 µM | > 25 | > 25 µM | > 25 | > 25 µM | > 25 µM | > 25 | > 25 | > 25 |
| O=C(O)c1ccc(NCn2nc(-c3ccccc3O)oc2=S)cc1 | 39.7 µM | > 100 | 59.6 µM | > 100 | > 100 | 62.8 µM | > 100 | 19.9 µM | 38.3 µM | > 100 µM | > 100 | 96.4 µM | > 100 | – | – | > 100 µM | 43.1 µM | > 100 | > 100 | > 100 |
| COc1cc2nc(SCc3cc(OC)c(OC)c(OC)c3)n(Cc3ccccc3)c(=O)c2cc1OC | 5.34 µM | 27.3 | 3.32 µM | 20.7 | > 100 | 2.14 µM | > 100 | 4.35 µM | > 100 µM | 6.71 µM | > 100 | 5.28 µM | 47.4 | 2.81 µM | 16.2 | 3.88 µM | 3.64 µM | 19.3 | 3.86 | > 100 |
| [C](#Cc1ccccc1)[Hg][C]#Cc1ccccc1 | 30.6 µM | > 100 | 22.1 µM | 43.2 | 41.7 | 27.7 µM | > 100 | 25.4 µM | 63.7 µM | 26.6 µM | 60.9 | 18.7 µM | 38 | 53.1 µM | > 100 | 14.7 µM | 22.4 µM | 43.9 | 20 | 36.2 |
| COc1ccc2cc(/C=C/C(=O)c3ccc(Cl)cc3Cl)ccc2c1 | 36.7 µM | > 100 | 33 µM | 96.7 | 89.1 | 17.5 µM | 41 | 24.1 µM | 60.4 µM | 26.6 µM | 75.4 | 32.9 µM | > 100 | 72.9 µM | > 100 | – | 27.9 µM | > 100 | 42.7 | – |
| Cc1[nH]nc(C(F)(F)F)c1N=NN(C)C | – | 3.09 | – | 24.9 | 3.56 | – | 42.9 | – | > 100 µM | – | 24.6 | – | 24.1 | – | 20.7 | – | – | 36.5 | – | 33 |
| COc1cc(F)c(F)c(Nc2ccc(I)cc2F)c1NS(=O)(=O)C1(C[C@H](O)CO)CC1 | > 4.02 µM | > 10 | > 5.26 µM | > 10 | > 10 | 0.0219 µM | > 10 | 0.556 µM | > 10 µM | > 6.48 µM | > 10 | 5.72 µM | > 10 | > 6.57 µM | > 10 | 0.029 µM | 2.09 µM | > 10 | 0.44 | 0.448 |
| C=CCn1c(C)nc2ccc(Nc3nc(Nc4ccc(F)cc4)nc4ccccc34)cc21 | 7.44 µM | 23.8 | 3.35 µM | 18.1 | 27.5 | 4.95 µM | 23.3 | 4.36 µM | 23 µM | 3.05 µM | 13.6 | 8.69 µM | 27.8 | 12.3 µM | 25.7 | 1.65 µM | 3.15 µM | 14.9 | 6.86 | 3.13 |
| COc1ccc(-c2cs/c(=N\N=C\c3ccc(O)cc3O)n2/N=C/c2ccc(O)cc2O)cc1 | 2.16 µM | 4.93 | 1.54 µM | 3.59 | – | 1.76 µM | 6.09 | 1.76 µM | 3.68 µM | 2.47 µM | 6.63 | 2.36 µM | 6.13 | 1.9 µM | 3.75 | 1.88 µM | 1.86 µM | 3.91 | – | 4.15 |
